Data as given in patent publication US20260327274A1, “PROTEIN HYDROLYSATES OF AZUKI BEANS AND COSMETIC USES THEREOF” (LUBRIZOL ADVANCED MATERIALS, INC., priority 2022, published 2026).
Ends that are not written are not given here.

Assays:
[1] = test system: Caucasian hair shafts; assay: Ex vivo protection evaluation in Caucasian hair shafts (protein carbonylation); parameters: species or system human; conditions: positive control NAC, concentration not given; stress (PM + UV-A); basal control 100, stress 214
Description: Carbonylated proteins in hair shafts or HFDPC are labeled in situ using a fluorescent probe functionalized to specifically bind carbonyl groups in proteins [Baraibar, M A, et al., “Proteomic quantification and identification of carbonylated proteins upon oxidative stress and during cellular aging” J. Proteomics (2013) 30; 92:63-70]. Specific fluorescent signals (relative fluorescent units) per experimental group (n=6) are collected and analyzed with ImageJ™ software. A relative value (%) of Carbonylation Level per experimental group is obtained with respect to basal control.
hair shafts (donor; light brown) are treated with hydrolysate of Example 3 at 1% (v/v) (active ingredient solubilized in ultra-pure water, leave on (no washing steps)) for 30 minutes with gently movement at room temperature. After this time, hair shafts are dried at room temperature and are stressed with Particle Matters at 150 μg/cm^2 (from European Reference Material; Ref. CZ100) followed by UV-A irradiation (LED source, emission peak at 365 nm, 84 J/cm^2) for 6 h.
After stress exposure Proteins Carbonylation is determined as described in Example 5.

[2] = DPPH assay of antioxidant activity in combination with preservatives, initial and after 3 months storage; format: biochemical; conditions: 0.5% (w/w) Sodium Benzoate alone
Description: (§1) Twelve different batches of purified hydrolysate obtained as described from Examples 1 to 3 are analyzed to determine the dry weight, protein content and antioxidant activity. • Dry weight is determined by weight difference after drying at 110° C. • Protein content is determined by using a BCA Assay kit. • Antioxidant activity is determined by DPPH (2,2-Diphenyl-1-Picrylhydrazyl) assay. • Briefly, 50 μL of 100 µM DPPH in EtOH is mixed with 50 μL of purified hydrolysate and incubated in the dark at 37° C. for 20 min and absorbance measured at 517 nm.
The inhibition percentage is calculated from the following formula: […]
Suitable preservative [1% (w/w) Dermosoft™ 700B (INCI: Levulinic Acid (and) Sodium Levulinate (and) Glycerin (and) Aqua), 4% (w/w) Leucidal™ SF Max from Active Micro Technologies (AMT) (INCI: Lactobacillus Ferment) or 4% (w/w) Leucidal™ Liquid (INCI: Leuconostoc/Radish Root Ferment Filtrate)] is added onto deionized water under continuous stirring. Purified hydrolysate according to Example 3 is added on top of this solution to obtain a concentration of 44-88% (v/v), depending on sample dry weight. […] Samples are maintained for 3 months at 40° C. or at room temperature and antioxidant activity determined by DPPH assay.

[3] = DPPH inhibition by synthesized peptides identified in the hydrolysate; format: biochemical; conditions: for DPPH inhibition (%): synthesized peptide, test concentration not given; for Ability to inhibit DPPH / antioxidant potential (in words): synthesized peptides, F′2 subfraction
Description: as §1
The purified extract according to Example 3 is further fractionated by using semi-preparative high-performance liquid chromatography (HPLC) and antioxidant activity assayed by DPPH for identifying the active fraction or peptides.
Collected tubes are analyzed by analytical HPLC at 3.0 mg/ml using a Cortecs C18+column (4.6×50 mm; 2.7 μm; Waters®) at a flow of 1.6 ml/min using the following gradient composition: isocratic of 0% B in 2 min, 0 to 30% of B in 5 min, and 30 to 75% of B in 5 min, monitoring absorbance of eluting peaks at 220 nm. Different fractions are obtained from the purified hydrolysate and lyophilized for further analysis and separation. Fractions are reconstituted in water and their antioxidant activity is determined by measuring the percentage of DPPH inhibition using the methodology described above.
To identify peptide sequences, the Proteome Discoverer 1.4.0.288 program (Thermo) with MASCOT 2.5 is used. The identified peptides are individually synthesized by applying standard solid phase peptide synthesis, using Fmoc/tBu chemistry protocols. As starting resin, CTC-PS or HO-Trt-Chem Matrix® resin is used. In the latter case, initial resin chlorination took place by overnight reaction with […] in dry THF. The first amino acid is introduced as a solution in DMF in presence of DIEA as base, followed by capping of the resin with MeOH. The resin is washed with DMF, prior to removal of Fmoc group by treatment with a 20% solution of piperidine in DMF, followed by washings in the same solvent. Subsequent residues are incorporated in DMF employing DIPCDI and Oxyma as coupling reagents. After verification of reaction completion using ninhydrin test, the solvent is filtrated away by suction. After this, the resin is washed with DMF and the Fmoc-deprotection step is repeated as abovementioned or in 2% DBU in DMF. Coupling-deprotection cycles are repeated for introduction of the remaining amino acids, with increasing Fmoc removal treatment times from the 6th residue. Oxyma (0.5M) is introduced in the cocktail whenever Asp residue is already incorporated into the growing peptide chain.
The peptidyl resin is washed and dried using DMF, DCM and diethyl ether and finally left under vacuum overnight to get rid of solvent traces. Cleavage of the crude product from the solid support and removal of the side-chain protecting groups is achieved by acidolysis using TFA and 5% water as scavenger. The peptide is precipitated out of the acidic mixture with Et2O, followed by washes with the same solvent and drying under reduced pressure. Crude trifluoroacetate salt peptide is lyophilized and analyzed by analytical HPLC-MS, affording peptide purities over 80%.
Synthesized peptides are further evaluated for its capacity to inhibit DPPH as a reference for their antioxidant potential. […] ID.

Row | Molecule | Carbonylation level % (MEAN ± SEM) [1] [%] | % DPPH INHIBITION, t = 0 [2] [%] | DPPH inhibition (%) [3] [%] | Ability to inhibit DPPH / antioxidant potential (in words) [3]
1 | CC(=O)N[C@@H](CS)C(=O)O [NAC, N-acetyl-cysteine] | 166.8 ± 5.41 | – | – | –
2 | O=C(O)c1ccccc1 [Sodium Benzoate] | – | 0 | – | –
3 | EYTGDAAGR [SEQ ID No. 5] | – | – | 83.9 | most antioxidant peptides
4 | GINAENNQRN [SEQ ID No. 4] | – | – | 96.3 | most antioxidant peptides
5 | LPQQEQGHDR [SEQ ID No. 2] | – | – | 77.5 | most antioxidant peptides
6 | VAEQEQEQAKRQ [SEQ ID No. 1] | – | – | 78.7 | most antioxidant peptides
7 | VDAQPEEQQR [SEQ ID No. 3] | – | – | 100 | most antioxidant peptides
